# From patent publication US20220185822A1, “SELECTIVE LIGANDS OF HUMAN CONSTITUTIVE ANDROSTANE RECEPTOR” (USTAV ORGANICKE CHEMIE A BIOCHEMIE AV CR, V.V.I., priority 2019, published 2022)
# Entries after “also recorded” stand apart in the source; their conditions may differ.
# What was measured:
# CAR variant 3 = target: T1, CAR variant 3 (Homo sapiens, UniProt Q14994, DEL233-236); test: Luciferase reporter gene assay with CAR variant 3 in HepG2 cells; format: cell-based; conditions: tested at 1 μM; HepG2, 24 h
# T1 construct: expressed in transfected cells; host or cells: HepG2
# T1 sequence (Q14994 with tags, fused parts or gaps isoform Q14994-8 DEL233-236): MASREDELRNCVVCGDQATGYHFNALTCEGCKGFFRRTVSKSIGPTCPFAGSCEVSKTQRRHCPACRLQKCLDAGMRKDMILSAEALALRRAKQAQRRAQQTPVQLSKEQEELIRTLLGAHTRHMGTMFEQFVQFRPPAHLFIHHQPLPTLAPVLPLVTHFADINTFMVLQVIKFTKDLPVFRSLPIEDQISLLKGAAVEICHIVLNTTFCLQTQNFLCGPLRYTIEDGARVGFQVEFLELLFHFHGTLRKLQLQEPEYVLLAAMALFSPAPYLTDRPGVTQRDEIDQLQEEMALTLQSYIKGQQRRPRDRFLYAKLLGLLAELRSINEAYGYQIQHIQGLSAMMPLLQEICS
# T1 sequence (P19793 1-462 partner): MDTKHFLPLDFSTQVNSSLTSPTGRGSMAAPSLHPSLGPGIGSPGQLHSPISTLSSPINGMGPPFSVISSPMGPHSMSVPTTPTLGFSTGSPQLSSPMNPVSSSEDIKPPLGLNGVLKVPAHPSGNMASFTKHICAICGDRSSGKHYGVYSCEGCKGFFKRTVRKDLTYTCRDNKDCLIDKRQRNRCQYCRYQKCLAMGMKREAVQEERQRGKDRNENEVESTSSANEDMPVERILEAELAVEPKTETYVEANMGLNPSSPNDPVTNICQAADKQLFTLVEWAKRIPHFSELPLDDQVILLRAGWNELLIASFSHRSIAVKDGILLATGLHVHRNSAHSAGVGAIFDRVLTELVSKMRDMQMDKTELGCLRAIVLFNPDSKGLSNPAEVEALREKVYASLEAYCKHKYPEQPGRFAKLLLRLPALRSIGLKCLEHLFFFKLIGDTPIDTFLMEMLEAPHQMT
# [1] = tested on: CYP2B6 mRNA (CAR target gene); test: RT-qPCR of CYP2B6 mRNA in primary human hepatocytes; format: cell-based; conditions: 48 hours, 1 and 5 μM/L (FIG. 4)
# Source text: (§1) Delta-delta method and GAPDH/Gapdh or B2M/B2m housekeeping genes were used for relative quantification. Data are expressed as fold up-/down-regulation compare to vehicle-treated samples/mice.
# [2] = tested on: Salmonella typhimurium strains TA 98, TA 100, TA 1535, TA 1537 and Escherichia coli WP2 uvrA strain; test: Bacterial Reverse Mutation Test (OECD 471)
# human CYP2D6 = target: T2, human CYP2D6 (Homo sapiens, UniProt P10635); test: Commercial CYP450-Glo inhibition assay, CYP2D6; format: in vitro ADME
# T2 construct: purchased Promega V8891
# [3] = tested on: CYP2B6 mRNA in HepaRG KO CAR cells; test: RT-qPCR of CYP2B6 mRNA in HepaRG KO CAR cells; format: cell-based, human; conditions: 24 h of treatment (FIG. 3)
# Source text: as §1
# [4] = tested on: CYP2B6 mRNA (CAR target gene); test: RT-qPCR of CYP2B6 mRNA in HepaRG cells; format: cell-based, human; conditions: 24 h of treatment (FIG. 3)
# Source text: as §1
# human CYP1A2 = target: T3, human CYP1A2 (Homo sapiens, UniProt P05177); test: Commercial CYP450-Glo inhibition assay, CYP1A2; format: in vitro ADME
# T3 construct: purchased Promega V8772
# [5] = tested on: CYP3A4, CYP1A2, CYP2C9, CYP2C19, CYP2C8, CYP2D6, CYP2B6 (panel); test: in vitro; conditions: both, human, pooled human liver microsomes
# HepG2 cells = test: Cytotoxicity, cell viability (MTS) in HepG2; format: cell-based; conditions: Homo sapiens, 48-h treatment, no significant effect at 30 μM/L
# Description: (§2) Cell viability in HepG2 and COS-1 cells after a 48 h treatment with test compounds at a concentration from 1 up to 30 μM was determined using the modified formazan-based […] assay. […] Briefly, the cells were treated with the test compounds or vehicle alone (DMSO) for 48 h. At the end of the treatment, 20 μl of MTS reagent was added directly to each culture wells and further cultivated for 1.5 h. Finally, the absorbance of converted formazan was recorded at 490 nm by plate reader (BioTec Synergy 2. Winooski. Vt. USA). Vehicle (DMSO) and TritonX100 (0.9%; v/v) controls of cell viability were set to be 100% and 0%, respectively.
# PPARα = target: T4, PPARα (Homo sapiens, UniProt Q07869); test: Luciferase reporter assay with GAL4 construct with LBD, PPARα; format: cell-based; conditions: 10 μM/L
# T4 construct: luciferase reporter assays with a GAL4 constructs with LBD of tested nuclear receptors; expressed in transfected cells
# [6] = tested on: differentiated HepaRG cells; test: Viability/cytotoxicity in differentiated HepaRG cells; format: cell-based, human; conditions: 48 h treatment
# live X receptor β = target: T5, live X receptor β (Homo sapiens, UniProt P55055); test: Luciferase reporter assay with GAL4 construct with LBD, live X receptor β; format: cell-based; conditions: 10 μM/L
# T5 construct: luciferase reporter assays with a GAL4 constructs with LBD of tested nuclear receptors; expressed in transfected cells
# [7] = Pharmacokinetic studies in mice
# [8] = tested on: primary human hepatocytes; test: Viability/cytotoxicity in primary human hepatocytes; format: cell-based; conditions: 48 h treatment
# [9] = tested on: CAR target genes mRNAs (Cyp2b10, Cyp2c29, CYP3A4); test: Single dose study in humanized PXR-CAR-CYP3A4/3A7 mice, liver RT-qPCR; format: in vivo; conditions: single p.o. 10 mg/kg, 24 hours (FIG. 5)
# [10] = Human plasma protein binding (micro-equilibrium dialysis); format: in vitro ADME; conditions: at 1 μM/L
# human androgen receptor = target: T6, human androgen receptor (Homo sapiens, UniProt P10275); test: Luciferase reporter assay with GAL4 construct with LBD, androgen receptor; format: cell-based; conditions: 10 μM/L
# T6 construct: luciferase reporter assays with a GAL4 constructs with LBD of tested nuclear receptors; expressed in transfected cells
# live X receptor α = target: T7, live X receptor α (Homo sapiens, UniProt Q13133); test: Luciferase reporter assay with GAL4 construct with LBD, live X receptor α; format: cell-based; conditions: 10 μM/L
# T7 construct: luciferase reporter assays with a GAL4 constructs with LBD of tested nuclear receptors; expressed in transfected cells
# estradion β receptor = target: T8, estradion β receptor (Homo sapiens, UniProt Q92731); test: Luciferase reporter assay with GAL4 construct with LBD, estradion β receptor; format: cell-based; conditions: 10 μM/L
# T8 construct: luciferase reporter assays with a GAL4 constructs with LBD of tested nuclear receptors; expressed in transfected cells
# COS-1 cells = test: Cytotoxicity, cell viability (MTS) in COS-1; format: cell-based, African green monkey; conditions: Chlorocebus sabaeus, 48-h treatment, no significant effect at 30 μM/L
# Description: as §2
# farnesoid X receptor = target: T9, farnesoid X receptor (Homo sapiens, UniProt Q96RI1); test: Luciferase reporter assay with GAL4 construct with LBD, farnesoid X receptor; format: cell-based; conditions: 10 μM/L
# T9 construct: luciferase reporter assays with a GAL4 constructs with LBD of tested nuclear receptors; expressed in transfected cells
# T9 sequence (Q96RI1 262-486 limits assumed): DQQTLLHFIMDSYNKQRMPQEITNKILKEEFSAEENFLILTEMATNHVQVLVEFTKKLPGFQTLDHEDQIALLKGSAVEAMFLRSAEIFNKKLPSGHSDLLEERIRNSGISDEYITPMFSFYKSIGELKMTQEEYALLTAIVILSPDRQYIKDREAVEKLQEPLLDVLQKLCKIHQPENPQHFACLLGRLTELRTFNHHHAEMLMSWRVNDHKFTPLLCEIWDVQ
# T2 sequence (P10635 whole entry): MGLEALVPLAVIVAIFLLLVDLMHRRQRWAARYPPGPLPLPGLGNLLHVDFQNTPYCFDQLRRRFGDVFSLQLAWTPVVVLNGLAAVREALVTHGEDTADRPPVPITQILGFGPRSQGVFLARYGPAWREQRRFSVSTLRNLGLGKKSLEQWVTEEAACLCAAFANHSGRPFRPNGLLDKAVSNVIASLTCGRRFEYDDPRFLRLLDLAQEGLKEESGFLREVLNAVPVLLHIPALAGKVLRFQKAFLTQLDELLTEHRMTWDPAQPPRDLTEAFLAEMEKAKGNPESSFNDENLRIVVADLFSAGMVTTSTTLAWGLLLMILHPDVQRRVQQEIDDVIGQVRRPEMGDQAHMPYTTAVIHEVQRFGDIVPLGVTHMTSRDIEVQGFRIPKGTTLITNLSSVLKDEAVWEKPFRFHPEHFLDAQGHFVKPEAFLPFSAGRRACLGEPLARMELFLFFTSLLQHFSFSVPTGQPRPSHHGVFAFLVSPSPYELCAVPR
# T3 sequence (P05177 whole entry): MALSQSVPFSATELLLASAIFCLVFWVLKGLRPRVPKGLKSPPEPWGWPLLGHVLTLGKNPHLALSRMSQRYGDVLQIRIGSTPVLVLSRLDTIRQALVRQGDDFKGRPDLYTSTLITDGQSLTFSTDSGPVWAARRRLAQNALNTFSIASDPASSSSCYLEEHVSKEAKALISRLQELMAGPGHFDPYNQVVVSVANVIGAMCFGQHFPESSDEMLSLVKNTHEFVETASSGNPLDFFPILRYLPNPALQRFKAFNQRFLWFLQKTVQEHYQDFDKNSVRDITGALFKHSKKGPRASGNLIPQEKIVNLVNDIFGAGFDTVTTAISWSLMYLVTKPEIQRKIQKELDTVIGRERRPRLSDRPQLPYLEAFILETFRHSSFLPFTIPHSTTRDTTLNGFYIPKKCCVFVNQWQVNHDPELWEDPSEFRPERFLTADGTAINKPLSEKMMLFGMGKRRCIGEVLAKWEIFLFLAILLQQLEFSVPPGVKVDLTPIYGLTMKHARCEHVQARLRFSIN
# T6 sequence (P10275 669-900 limits assumed): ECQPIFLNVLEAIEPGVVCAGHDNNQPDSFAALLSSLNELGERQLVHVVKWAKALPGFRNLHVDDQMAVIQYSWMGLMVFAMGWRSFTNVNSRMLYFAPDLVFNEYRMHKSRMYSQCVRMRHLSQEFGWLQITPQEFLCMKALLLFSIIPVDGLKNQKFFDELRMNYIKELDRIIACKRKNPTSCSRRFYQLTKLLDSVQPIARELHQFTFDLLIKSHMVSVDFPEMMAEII
# T4 sequence (Q07869 239-466 limits assumed): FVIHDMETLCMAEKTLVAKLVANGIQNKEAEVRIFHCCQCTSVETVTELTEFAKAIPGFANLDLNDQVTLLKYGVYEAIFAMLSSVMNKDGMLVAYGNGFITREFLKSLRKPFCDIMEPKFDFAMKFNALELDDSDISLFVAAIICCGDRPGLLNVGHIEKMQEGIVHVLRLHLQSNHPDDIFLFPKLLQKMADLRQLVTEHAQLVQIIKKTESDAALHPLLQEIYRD
# T5 sequence (P55055 222-460 limits assumed): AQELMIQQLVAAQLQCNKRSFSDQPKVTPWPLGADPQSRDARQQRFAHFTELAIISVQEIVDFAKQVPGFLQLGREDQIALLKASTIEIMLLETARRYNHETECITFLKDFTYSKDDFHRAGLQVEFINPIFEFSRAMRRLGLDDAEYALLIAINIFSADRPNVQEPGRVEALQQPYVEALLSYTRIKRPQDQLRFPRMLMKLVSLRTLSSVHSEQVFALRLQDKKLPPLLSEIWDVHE
# T8 sequence (Q92731 264-498 limits assumed): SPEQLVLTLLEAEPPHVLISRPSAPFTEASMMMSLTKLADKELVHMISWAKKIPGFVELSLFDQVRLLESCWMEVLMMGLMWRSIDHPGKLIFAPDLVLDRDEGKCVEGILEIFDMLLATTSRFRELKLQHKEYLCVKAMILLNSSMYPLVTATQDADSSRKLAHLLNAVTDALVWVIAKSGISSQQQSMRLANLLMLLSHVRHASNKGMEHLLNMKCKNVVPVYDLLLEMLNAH
# T7 sequence (Q13133 209-447 limits assumed): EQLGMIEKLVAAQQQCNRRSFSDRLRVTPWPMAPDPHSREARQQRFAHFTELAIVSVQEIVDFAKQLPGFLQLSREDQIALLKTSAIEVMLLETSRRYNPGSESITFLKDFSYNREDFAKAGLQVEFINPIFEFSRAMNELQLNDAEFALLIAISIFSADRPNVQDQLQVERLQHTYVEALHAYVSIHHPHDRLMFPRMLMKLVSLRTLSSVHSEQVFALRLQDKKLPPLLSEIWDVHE
structure (smiles),measurement,setting,value
"NC(=O)c1cc(Cn2cc(-c3c(-c4ccc(Cl)cc4)nc4cc(F)ccn34)nn2)ccc1Cl [Example 93, 2-Chloro-5-((4-(2-(4-chlorophenyl)-7-fluoroimidazo[1,2-a]pyridin-3-yl)-1H-1,2,3-triazol-1-yl)methyl)benzamide]",CAR3 % of CITCO (1 μM) activity at 1 μM,CAR variant 3,83%
same,CYP2B6 mRNA in primary human hepatocytes,[1],up-regulates
same,mutagenicity in Bacterial Reverse Mutation Test,"[2]; all indicator strains, with and without metabolic activation",non-mutagenic
same,number of revertants compared to solvent controls (Rt/Rc),[2]; with or without S9 fraction,< 2
same,IC50,human CYP2D6,> 10 µM
same,CYP2B6 mRNA in HepaRG KO CAR cells,[3],not in HepaRG KO CAR cells
same,CYP2B6 mRNA in differentiated HepaRG cells,[4],upregulates; also recorded: up-regulation
same,IC50,human CYP1A2,> 10 µM
same,IC50,[5],> 10 µM
same,IC50,HepG2 cells,> 30 µM
same,activation of PPARα,PPARα,do not activate
same,viability/cytotoxicity in differentiated HepaRG cells,[6],no effect on viability/cytotoxicity
same,activation of live X receptor β,live X receptor β,do not activate
same,Bioavailability (F) based on AUCp.o./AUCi.p. ratio,"[7]; 10 mg/kg, C57BL/6N mice",98.6%
same,delivery into the liver and bile,[7]; FIG. 6,excellent delivery into the liver and bile
same,viability/cytotoxicity in primary human hepatocytes,[8],no effect on viability/cytotoxicity
same,CYP3A4 mRNA in the liver,[9],up-regulate
same,Cyp2b10 mRNA in the liver,[9],up-regulate
same,Cyp2c29 mRNA in the liver,[9],up-regulate
same,fraction unbound at 1 μM,[10],0.01
same,activation of human androgen receptor,human androgen receptor,do not activate
same,activation of live X receptor α,live X receptor α,do not activate
same,activation of estradion β receptor,estradion β receptor,do not activate
same,IC50,COS-1 cells,> 30 µM
same,activation of farnesoid X receptor,farnesoid X receptor,do not activate
